# From PubChem BioAssay AID730 (The Scripps Research Institute Molecular Screening Center, 2007)
# The source made the active and inactive calls.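 Rule for the calls: active = EC50 at or below 10 micromolar, taken from the curve fit or judged by hand from the single doses; inactive = EC50 above 10 micromolar.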
# Biological target: CHO S1P3/Ga15 NFAT-beta-lactamase reporter, FRET fluorescence
# Test: S1P3 reporter-cell activation, dose response, counter-screen for 5HT1E agonist project (AID 730)
row,SMILES,EC50
1,Cn1cc(/C(Cc2ccccc2)=N\O)c2ccccc21,> 40 µM (inactive)
2,CCOC(=O)C1=C(C)NC(=O)NC1c1ccc(OCC(=O)Nc2ccccc2)c(OC)c1 (stereo not drawn),> 40 µM (inactive)
3,CN1CCN(/C(=N\O)c2nonc2N)CC1,> 40 µM (inactive)
